Data published in PMC5620277, “The histone methyltransferase EZH2 as a druggable target in SHH medulloblastoma cancer stem cells” (Oncotarget, 2017).

How the values were obtained:
DOT1L = DOT1L (Homo sapiens, UniProt Q8TEK3); test: Methyltransferase panel: DOT1L; type: biochemical; conditions: substrate nucleosomes
Method: MC3629 was tested in the cell free enzymatic assay (EZH2/PRC2) in 10-dose IC50 mode with 2-fold serial dilution starting from 400 μM solution, using various histone substrates (histone H3/H4 octamer, histone H3/H4 tetramer, histone H3, and core histone) and SAM as the co-substrate. […] (Figure 2B, and Supplementary Figure 2).
The appropriate methyltransferase (MT) substrate (0.05 mg/ml core histone for EZH1 complex, 0.05 mg/ml oligonucleosomes for DOT1L, 5 μM histone H3 (1-21) peptide for G9a, 0.05 mg/ml nucleosomes for MLL1 complex, 0.05 mg/ml core histone for SET7/9, 5 μM histone H4 for PRMT1, and 0.001 mg/ml poly(dI-dC) for DNMT1) was added in freshly prepared Reaction Buffer (50 mM Tris-HCl (pH 8.5), 5 mM MgCl2, 50 mM NaCl, 0.01% Brij35, 1 mM DTT, 1% DMSO). The MT enzyme was delivered into the substrate solution and the mixture was mixed gently. Afterwards, the tested compound dissolved in DMSO was delivered into the enzyme/substrate reaction mixture by using Acoustic Technology (Echo 550, LabCyte Inc. Sunnyvale, CA) in nanoliter range, and 1 μM ^3H-SAM was also added into the reaction mixture to initiate the reaction. The reaction mixture was incubated for 1 h at 30°C and then it was delivered to filter-paper for detection. The data were analyzed using Excel and GraphPad Prism software for IC50 curve fits (for EZH1 complex).

DAOY-SLCs = test: Western Blot of H3K27me3 and PCNA in DAOY-SLCs; type: cell-based; conditions: 5 μM, 48 h
Method: To evaluate cell viability cells were plated at a density of 5×10^3 cells/well in 96-well plates and were incubated with MTS solution (CellTiter 96® AQueous One Solution Promega).
Western blots were performed according to standard procedures. Briefly, protein lysates were prepared using RIPA buffer with fresh protease inhibitors. Lysates were separated on SDS polyacrylamide gels. Proteins were transferred on nitrocellulose membrane (0.45 micron) (PerkinElmer). Membranes were blocked for 1 h at room temperature in 5% nonfat dry milk and incubated overnight at 4°C with antibodies against EZH2 (4905S Cell signaling), H3K27me3 (07-449 Millipore), PCNA (2586 Cell signaling), ACTIN (I-19 sc-1616; Santa Cruz Biotechnology), GAPDH (ab9484, Abcam), cleaved CSP-3 (D-175 9661S; Cell Signaling) and H3 (ab1971, Abcam). HRP-conjugated secondary antibodies (Santa Cruz Biotechnology) were used in combination with enhanced chemiluminescence (ECL Amersham).

[1] = test system: DAOY-SLCs orthotopic tumors (XT-MB); test: Xenograft DAOY-SLCs orthotopic tumors (XT-MB) in nude mice; type: in vivo, mouse; conditions: 20 μMoles/Kg i.p. twice a week for 3 weeks
Method: Next, we generated xenograft DAOY-SLCs orthotopic tumors (XT-MB) in nude mice that grew as tumor masses with the characteristics of MBs.
DAOY-SLCs were stereotaxically implanted into the cerebellum of nude mice by using the following coordinates according to the atlas of Franklin and Paxinos: 6.6 mm posterior to the bregma; 1 mm lateral to the midline; and 2 mm ventral from the surface of skull of mice, under ketamine (100 mg/kg, i.p.)/xylazine (10 mg/kg, i.p.) anesthesia. Cells (2×10^5 per 3 μl) were implanted at an infusion rate of 1 μl/min. Mice were separated into two groups. Group 1 (n=8) was intraperitoneally treated with MC3629 (20 μMoles/Kg) suspended in 10% (2-Hydroxypropyl)-β-cyclodextrin +1%DMSO (Sigma), Group 2 (n=8) was treated with 10% (2-Hydroxypropyl)-β-cyclodextrin +1%DMSO (Sigma). After 21 days of treatment, animals were sacrificed and brains were formalin fixed and paraffin embedded. Brain tumor volume calculation: Serial thick coronal sections (2 μm) starting from mesencephalon to the end of cerebellum were performed. The analysis was performed on 20 sections, sampled every 40 μm on the horizontal plan of the cerebellum, in which the tumor was identified and outlined at 2.5X magnification.
Every 40 μm of brain slice, hematoxylin and eosin (H&E) staining was performed. Tumor area of every slice was evaluated with a microscope (Axio Imager M1 microscope) equipped with a motorized stage and software Image Pro Plus 6.2. The following formula was used to calculate brain tumor volume: tumor volume = sum of (measured area for each slice x slice thickness x sampling frequency).
Paraffin-embedded sections were deparaffinized, and stained with either H&E or immunohistochemical stains as specified. Heat-induced epitope retrieval was performed with citrate buffer pH 6. Sections were incubated with ki67 primary antibody (Thermo Scientific) for 1 h. Ki67 expression was expressed as percentages of total cells with labeled nuclei.

[2] = PAMPA-BBB (porcine brain lipid extract artificial membrane); type: in vitro ADME
Method: Donor solution (500 μM or 250 μM) was prepared by diluting 10 or 5 mM DMSO compound stock solution using phosphate buffer (pH 7.4, 0.01 M). Filter membrane was coated with 5 μl of BBB-specific lipid solution prepared dissolving 16 mg of PBL (Avanti Lipids Polar, 141101P) in 600 μl of n-dodecane. Donor solution (150 μl) was added to each well of the filter plate. To each well of the acceptor plate 300 μl of solution (5% DMSO in phosphate buffer) were added. Each compound was tested in triplicate. The sandwich was incubated for 24 h at room temperature under gentle shaking. After the incubation time, the sandwich plates were separated and 250 μl of the acceptor plate were transferred to a UV quartz microtiter plate and measured by UV spectroscopy, using a Multiskan GO microplate spectrophotometer (Thermo Scientific) at 250−500 nm at step of 5 nm. Reference solutions (250 μl) were prepared diluting the sample stock solutions to the same concentration as that with no membrane barrier. The BBB permeability value Log Pe is determined applying the equation:
log Pe= log{C⋅(−ln(1−[drug]acceptor/[drug]equilibrium))},
where C=(VD⋅VA/(VD+VA)area⋅time)
In this equation, VA is the volume of the acceptor compartment (0.3 cm^3), VD is the donor volume (0.15 cm^3), area is the accessible filter area (0.24 cm^2), and time is the incubation time in seconds.

Chain of DOT1L (Q8TEK3 whole entry, species assumed): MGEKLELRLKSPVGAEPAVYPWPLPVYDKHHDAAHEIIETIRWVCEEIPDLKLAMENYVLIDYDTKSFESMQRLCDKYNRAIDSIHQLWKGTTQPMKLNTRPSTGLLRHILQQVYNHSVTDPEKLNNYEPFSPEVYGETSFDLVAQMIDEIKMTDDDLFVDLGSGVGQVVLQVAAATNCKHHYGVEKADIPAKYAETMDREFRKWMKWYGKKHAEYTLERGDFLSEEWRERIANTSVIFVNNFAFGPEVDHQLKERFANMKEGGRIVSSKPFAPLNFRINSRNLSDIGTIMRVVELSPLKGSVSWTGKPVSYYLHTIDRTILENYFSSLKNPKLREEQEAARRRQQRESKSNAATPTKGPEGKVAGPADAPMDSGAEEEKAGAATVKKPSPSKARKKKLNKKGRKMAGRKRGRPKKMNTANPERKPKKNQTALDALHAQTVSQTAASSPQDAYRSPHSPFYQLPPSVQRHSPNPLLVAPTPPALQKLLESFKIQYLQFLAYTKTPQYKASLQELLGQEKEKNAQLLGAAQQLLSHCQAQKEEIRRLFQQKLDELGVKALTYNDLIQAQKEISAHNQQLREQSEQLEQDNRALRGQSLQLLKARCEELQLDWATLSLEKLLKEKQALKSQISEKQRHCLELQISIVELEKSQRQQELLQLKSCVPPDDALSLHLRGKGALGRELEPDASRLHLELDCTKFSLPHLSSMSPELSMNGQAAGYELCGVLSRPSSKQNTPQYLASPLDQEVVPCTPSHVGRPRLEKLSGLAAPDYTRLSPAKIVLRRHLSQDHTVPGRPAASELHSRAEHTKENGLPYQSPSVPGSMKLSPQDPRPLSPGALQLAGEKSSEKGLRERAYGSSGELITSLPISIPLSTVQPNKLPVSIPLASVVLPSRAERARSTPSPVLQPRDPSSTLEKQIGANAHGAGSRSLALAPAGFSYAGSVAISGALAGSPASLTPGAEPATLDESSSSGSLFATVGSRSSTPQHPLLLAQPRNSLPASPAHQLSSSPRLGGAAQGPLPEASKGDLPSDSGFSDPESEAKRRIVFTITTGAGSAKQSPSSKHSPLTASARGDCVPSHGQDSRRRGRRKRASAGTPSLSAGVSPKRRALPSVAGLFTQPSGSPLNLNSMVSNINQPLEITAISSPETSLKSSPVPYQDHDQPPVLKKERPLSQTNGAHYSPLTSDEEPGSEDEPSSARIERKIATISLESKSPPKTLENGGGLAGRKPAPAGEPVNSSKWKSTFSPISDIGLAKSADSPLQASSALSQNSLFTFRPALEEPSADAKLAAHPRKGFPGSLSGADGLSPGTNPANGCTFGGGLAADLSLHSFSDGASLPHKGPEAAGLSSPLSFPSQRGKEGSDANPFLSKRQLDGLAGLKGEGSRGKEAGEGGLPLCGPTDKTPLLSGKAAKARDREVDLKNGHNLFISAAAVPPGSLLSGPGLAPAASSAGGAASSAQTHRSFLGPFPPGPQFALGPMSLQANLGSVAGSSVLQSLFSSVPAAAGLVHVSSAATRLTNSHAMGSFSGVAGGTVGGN

Cc1cc(C)c(CNC(=O)c2cnn(-c3ccccc3)c2C)c(=O)[nH]1 [MC3629, N-((4,6-dimethyl-2-oxo-1,2-dihydropyridin-3-yl)methyl)-5-methyl-1-phenyl-1H-pyrazole-4-carboxamide]
inhibition at 200 µM (DOT1L): 3%
H3K27me3 and PCNA levels (DAOY-SLCs): down modulated
H3K27me3 in tumor xenografts ([1]; Western Blot): reduction
NANOG protein in tumors ([1]; Western Blot): significantly lower levels
apoptosis, level of cleaved caspase 3 in XT-MB ([1]; Western Blot): induction of apoptosis
proliferating Ki67-positive cells in tumors ([1]; immunostaining): significant reduction
XT-MB growth (xenograft volume) ([1]; nude mice): significantly impaired
Papp at 24 h ([2]; Pe in cm/s, pH 7.4, 24 h, room temperature, triplicate, read-out: Log Pe (converted)): 46.8 nm/s
Δ Log Pe ([2]; respect to propranolol): −0.12
